Measured values reported in US9877916B2, “Methods and compositions for treating aged skin” (ELC Management LLC, priority 2016, dated 2018).

Test system: normal human dermal fibroblasts (NHDF) from a donor
Assay: collagen induction assay (Pro-collagen Type I EIA) in aged fibroblasts
Type: cell-based
Settings: 72 hr, 18 ug/ml, positive control
Description: Moringa oleifera seed extract was tested at various concentrations for its ability to stimulate collagen production in normal human dermal fibroblasts (“NHDF”) from a donor in a collagen induction assay. Moringa oleifera extract diluted in dimethylsulfoxide (“DMSO”) (% concentrations 0.003125, 0.00625 and 0.0125), Moringa oleifera […] diluted in Dulbecco's Modified Eagle Medium supplemented with 10% Hyclone® bovine calf serum and 1% Cellgro® penicillin-streptomycin solution (“DMEM”) (% concentrations of 0.0000625, 0.000125, 0.00025, 0.0005), positive control (L-ascorbic acid, 18 ug/ml), and DMEM alone were tested. Cell Growth and Maintenance. Aged NHDF were obtained from ZenBio. Fibroblasts were cultured in DMEM 1× (Life Tech) supplemented with 10% bovine calf serum (Hyclone) and 1% PenStrep solution (Cellgro). Cells were regularly maintained; subcultured as needed. Normal human dermal fibroblasts (NHDF, aged) were plated on a 96-well plate in supplemented DMEM (as indicated above). […] Alamar Blue results were determined using a plate reader. Data was analyzed using the SoftMax Pro software and Excel. Collagen production was assessed using the Pro-collagen Type I collagen EIA Kit (Takara) as per manufacturer's protocol, exactly as described. Plate was read using the Gemini M2E plate reader and results were compared. […]

SMILES: O=C1O[C@H]([C@@H](O)CO)C(O)=C1O [L-ascorbic acid (+Control), L-ascorbic acid]
- % increase in collagen induction: +16%
